By IC50 is commonly meant the midpoint of a concentration-inhibition curve. A high value points to weaker potency.

Molecules are shown by their SMILES.

In the test the target is Cdk9/cyclinT1 (Homo sapiens, UniProt P50750). The experiment in a line: Cdk9/cyclinT1 IMAP Protocol (fluorescence polarization kinase assay). Particulars: Cdk9_cyclinT1_IC50, Table V; generated using one of the two Cdk9/cyclinT1 assays (IMAP or Alpha Screen), not stated which; ATP 6 uM. (Fluorescence polarisation rises when a labelled molecule tumbles more slowly, as on binding a larger partner.)
Chain of Cdk9/cyclinT1 (P50750 whole entry): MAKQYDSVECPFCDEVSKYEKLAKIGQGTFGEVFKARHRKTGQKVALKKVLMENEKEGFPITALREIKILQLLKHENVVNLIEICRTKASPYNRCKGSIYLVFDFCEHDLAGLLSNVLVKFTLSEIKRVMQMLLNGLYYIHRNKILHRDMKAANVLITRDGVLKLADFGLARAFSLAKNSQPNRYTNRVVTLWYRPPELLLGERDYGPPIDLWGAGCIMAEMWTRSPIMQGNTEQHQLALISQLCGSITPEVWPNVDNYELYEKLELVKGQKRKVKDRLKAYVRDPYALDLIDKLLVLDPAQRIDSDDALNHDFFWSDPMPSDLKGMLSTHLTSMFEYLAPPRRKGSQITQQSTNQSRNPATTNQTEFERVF
Chain of Cdk9/cyclinT1 (O60563 whole entry partner): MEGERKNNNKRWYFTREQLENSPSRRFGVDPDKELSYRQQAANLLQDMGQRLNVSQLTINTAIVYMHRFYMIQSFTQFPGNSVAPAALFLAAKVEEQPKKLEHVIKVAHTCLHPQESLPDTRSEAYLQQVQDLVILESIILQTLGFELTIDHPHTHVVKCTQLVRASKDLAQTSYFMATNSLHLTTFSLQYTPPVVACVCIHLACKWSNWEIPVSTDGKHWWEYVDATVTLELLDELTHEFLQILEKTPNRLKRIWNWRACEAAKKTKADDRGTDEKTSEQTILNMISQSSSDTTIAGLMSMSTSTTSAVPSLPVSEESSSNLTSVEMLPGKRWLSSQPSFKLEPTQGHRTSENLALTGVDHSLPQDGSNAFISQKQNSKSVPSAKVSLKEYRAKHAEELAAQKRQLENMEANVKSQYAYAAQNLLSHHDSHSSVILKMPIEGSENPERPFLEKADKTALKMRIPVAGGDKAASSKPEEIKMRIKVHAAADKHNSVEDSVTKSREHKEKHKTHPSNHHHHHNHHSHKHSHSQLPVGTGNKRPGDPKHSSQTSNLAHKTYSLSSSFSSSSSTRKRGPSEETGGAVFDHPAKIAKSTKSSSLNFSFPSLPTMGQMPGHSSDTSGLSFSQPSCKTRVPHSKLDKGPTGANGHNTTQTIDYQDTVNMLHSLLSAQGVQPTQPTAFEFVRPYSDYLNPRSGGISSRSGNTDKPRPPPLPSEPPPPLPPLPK

Turning to `O=C1CCC(C(=O)Nc2cc(-c3cccc(NCC4CCOCC4)n3)c(Cl)cn2)CN1` (centres unmarked) [Example 61, 6-Oxo-piperidine-3-carboxylic acid {5′-chloro-6-[(tetrahydro-pyran-4-ylmethyl)-amino]-[2,4′]bipyridinyl-2′-yl}-amide], the IC50 was below 0.008 µM. Under `O=C(Nc1cc(-c2cccc(NCC3CCOCC3)n2)c(Cl)cn1)C1CCCOC1` (centres unmarked) [Example 62, Tetrahydro-pyran-3-carboxylic acid {5′-chloro-6-[(tetrahydro-pyran-4-ylmethyl)-amino]-[2,4′]bipyridinyl-2′-yl}-amide] stands 0.019 µM; under `O=C(Nc1cc(-c2cccc(NCC3CCOCC3)n2)c(Cl)cn1)C1CCOCC1` [Example 63, Tetrahydro-pyran-4-carboxylic acid {5′-chloro-6-[(tetrahydro-pyran-4-ylmethyl)-amino]-[2,4′]bipyridinyl-2′-yl}-amide], 0.027 µM; under `CNCCC(=O)Nc1cc(-c2cccc(NCC3CCOCC3)n2)c(Cl)cn1` [Example 64, N-{5′-Chloro-6-[(tetrahydro-pyran-4-ylmethyl)-amino]-[2,4′]bipyridinyl-2′-yl}-3-methylamino-propionamide], 0.037 µM. Under `O=C(Nc1cc(-c2cccc(NCC3CCOCC3)n2)c(Cl)cn1)C1CCCC1` [Example 65, Cyclopentanecarboxylic acid {5′-chloro-6-[(tetrahydro-pyran-4-ylmethyl)-amino]-[2,4′]bipyridinyl-2′-yl}-amide] stands below 0.008 µM; under `O=C(Cc1cccnc1)Nc1cc(-c2cccc(NCC3CCOCC3)n2)c(Cl)cn1` [Example 66, N-{5′-Chloro-6-[(tetrahydro-pyran-4-ylmethyl)-amino]-[2,4′]bipyridinyl-2′-yl}-2-pyridin-3-yl-acetamide], 0.009 µM.

The compound `O=C(Nc1cc(-c2cccc(NCC3CCOCC3)n2)c(Cl)cn1)[C@@H]1CCCO1` [Example 67, (S)-Tetrahydro-furan-2-carboxylic acid {5′-chloro-6-[(tetrahydro-pyran-4-ylmethyl)-amino]-[2,4′]bipyridinyl-2′-yl}-amide] showed an IC50 of 0.396 µM. Compared with the last compound, the IC50 is about 44-fold higher. Under `O=C(Nc1cc(-c2cccc(NCC3CCOCC3)n2)c(Cl)cn1)[C@H]1CCCO1` [Example 68, (R)-Tetrahydro-furan-2-carboxylic acid {5′-chloro-6-[(tetrahydro-pyran-4-ylmethyl)-amino]-[2,4′]bipyridinyl-2′-yl}-amide] stands 0.011 µM. Next, `CC(=O)Nc1cc(-c2cccc(NCC3CCOCC3)n2)c(Cl)cn1` [Example 69, N-{5′-Chloro-6-[(tetrahydro-pyran-4-ylmethyl)-amino]-[2,4′]bipyridinyl-2′-yl}-acetamide]: 0.139 µM; `CC(C)C(=O)Nc1cc(-c2cccc(NCC3CCOCC3)n2)c(Cl)cn1` [Example 70, N-{5′-Chloro-6-[(tetrahydro-pyran-4-ylmethyl)-amino]-[2,4]bipyridinyl-2′-yl}-isobutyramide]: 0.011 µM. `O=C(Nc1cc(-c2cccc(NCC3CCOCC3)n2)c(Cl)cn1)c1cccnc1` [Example 71, N-{5′-Chloro-6-[(tetrahydro-pyran-4-ylmethyl)-amino]-[2,4′]bipyridinyl-2′-yl}-nicotinamide] came in with an IC50 of 0.056 µM.

The compound `CC(C)(C)C(=O)Nc1cc(-c2cccc(NCC3CCOCC3)n2)c(Cl)cn1` [Example 72, N-{5′-Chloro-6-[(tetrahydro-pyran-4-ylmethyl)-amino]-[2,4′]bipyridinyl-2′-yl}-2,2-dimethyl-propionamide] showed an IC50 of 0.04 µM. Regarding `O=C(Nc1cc(-c2cccc(NCC3CCOCC3)n2)c(Cl)cn1)[C@H]1CCNC1` [Example 73, (S)-Pyrrolidine-3-carboxylic acid {5′-chloro-6-[(tetrahydro-pyran-4-ylmethyl)-amino]-[2,4′]bipyridinyl-2′-yl}-amide], half-maximal inhibition (IC50) was put at 0.013 µM. Next, `O=C(Nc1cc(-c2ccc(Cl)c(NCC3CCOCC3)n2)c(Cl)cn1)[C@@H]1CCCNC1` [Example 74, (R)-Piperidine-3-carboxylic acid {5,5′-dichloro-6-[(tetrahydro-pyran-4-ylmethyl)-amino]-[2,4′]bipyridinyl-2′-yl}-amide]: below 0.008 µM.

Compound `O=C(Nc1cc(-c2nc(NCC3CCOCC3)ccc2Cl)c(Cl)cn1)[C@@H]1CCCNC1` [Example 75] displayed an IC50 below 0.008 µM. Next, `C[C@@H](Nc1cccc(-c2cc(NC(=O)[C@@H]3CCCNC3)ncc2Cl)n1)C1CCCCC1` [Example 76, (R)-Piperidine-3-carboxylic acid [5′-chloro-6-((R)-1-cyclohexyl-ethylamino)-[2,4′]bipyridinyl-2′-yl]-amide]: 0.015 µM.

As to `C[C@H](Nc1cccc(-c2cc(NC(=O)[C@@H]3CCCNC3)ncc2Cl)n1)C1CCCCC1` [Example 77, (R)-Piperidine-3-carboxylic acid [5′-chloro-6-((S)-1-cyclohexyl-ethylamino)-[2,4′]bipyridinyl-2′-yl]-amide], the IC50 is 0.008 µM. Consider `O=C(Nc1cc(-c2cccc(NCc3cc(F)cc(F)c3)n2)c(Cl)cn1)[C@@H]1CCCNC1` [Example 80, (R)-Piperidine-3-carboxylic acid [5′-chloro-6-(3,5-difluoro-benzylamino)-[2,4′]bipyridinyl-2′-yl]-amide], for which the IC50 is below 0.008 µM. Under `CS(=O)(=O)N1CCC[C@H](C(=O)Nc2cc(-c3cccc(NCC4CCCOC4)n3)c(Cl)cn2)C1` (stereo partly drawn) [Example 81, (S)-1-Methanesulfonyl-piperidine-3-carboxylic acid {5′-chloro-6-[(tetrahydro-pyran-3-ylmethyl)-amino]-[2,4′]bipyridinyl-2′-yl}-amide] stands below 0.008 µM; under `CC(=O)N1CCC[C@@H](C(=O)Nc2cc(-c3cccc(NCC4CCOCC4)n3)c(Cl)cn2)C1` [Example 82, (R)-1-acetyl-piperidine-3-carboxylic acid {5′-chloro-6-[(tetrahydro-pyran-4-ylmethyl)-amino]-[2,4′]bipyridinyl-2′-yl}-amide], 0.631 µM; under `CS(=O)(=O)N1CCC[C@@H](C(=O)Nc2cc(-c3cccc(NCC4CCOCC4)n3)c(Cl)cn2)C1` [Example 83, (R)-1-Methanesulfonyl-piperidine-3-carboxylic acid {5′-chloro-6-[(tetrahydro-pyran-4-ylmethyl)-amino]-[2,4′]bipyridinyl-2′-yl}-amide], 0.482 µM. Under `COC(=O)N1CCC[C@@H](C(=O)Nc2cc(-c3cccc(NCC4CCOCC4)n3)c(Cl)cn2)C1` [Example 84, (R)-3-{5′-Chloro-6-[(tetrahydro-pyran-4-ylmethyl)-amino]-[2,4′]bipyridinyl-2′-ylcarbamoyl}-piperidine-1-carboxylic acid methyl ester] stands 0.419 µM. `O=C(Nc1cc(-c2cccc(NCC3CCOCC3)n2)c(Cl)cn1)[C@H]1CNC[C@H]1F` [Example 85, (3R,4S)-4-Fluoro-pyrrolidine-3-carboxylic acid {5′-chloro-6-[(tetrahydro-pyran-4-ylmethyl)-amino]-[2,4′]bipyridinyl-2′-yl}-amide]: the IC50 was 0.016 µM. Next, `CC(C)C(=O)Nc1cc(-c2nc(NCC3CCOCC3)ccc2Cl)c(Cl)cn1` [Example 86, N-{3,5′-Dichloro-6-[(tetrahydro-pyran-4-ylmethyl)-amino]-[2,4′]bipyridinyl-2′-yl}-isobutyramide]: below 0.008 µM. Under `O=C(Nc1cc(-c2nc(NCC3CCOCC3)ccc2Cl)c(Cl)cn1)C1CNCCO1` (centres unmarked) [Example 87, Morpholine-2-carboxylic acid {3,5′-dichloro-6-[(tetrahydro-pyran-4-ylmethyl)-amino]-[2,4′]bipyridinyl-2′-yl}-amide] stands 0.018 µM; under `O=C(Nc1cc(-c2nc(NCC3CCOCC3)ccc2Cl)c(Cl)cn1)[C@@H]1CCNC1` [Example 88, (R)-Pyrrolidine-3-carboxylic acid {3,5′-dichloro-6-[(tetrahydro-pyran-4-ylmethyl)-amino]-[2,4′]bipyridinyl-2′-yl}-amide], below 0.008 µM; under `CC(=O)N1CCC[C@H](C(=O)Nc2cc(-c3cccc(NCC4CCOCC4)n3)c(Cl)cn2)C1` [Example 89, (S)-1-Acetyl-piperidine-3-carboxylic acid {5′-chloro-6-[(tetrahydro-pyran-4-ylmethyl)-amino]-[2,4′]bipyridinyl-2′-yl}-amide], below 0.008 µM. Under `COC(=O)N1CCC[C@H](C(=O)Nc2cc(-c3cccc(NCC4CCOCC4)n3)c(Cl)cn2)C1` [Example 90, (S)-3-{5′-Chloro-6-[(tetrahydro-pyran-4-ylmethyl)-amino]-[2,4′]bipyridinyl-2′-ylcarbamoyl}-piperidine-1-carboxylic acid methyl ester] stands 0.008 µM; under `CS(=O)(=O)N1CCC[C@H](C(=O)Nc2cc(-c3cccc(NCC4CCOCC4)n3)c(Cl)cn2)C1` [Example 91, (S)-1-Methanesulfonyl-piperidine-3-carboxylic acid {5′-chloro-6-[(tetrahydro-pyran-4-ylmethyl)-amino]-[2,4′]bipyridinyl-2′-yl}-amide], below 0.008 µM.

`CCS(=O)(=O)N1CCC[C@H](C(=O)Nc2cc(-c3cccc(NCC4CCOCC4)n3)c(Cl)cn2)C1` [Example 92, (S)-1-Ethanesulfonyl-piperidine-3-carboxylic acid {5′-chloro-6-[(tetrahydro-pyran-4-ylmethyl)-amino]-[2,4′]bipyridinyl-2′-yl}-amide]: the IC50 is below 0.008 µM.

Regarding `O=C(Nc1cc(-c2cccc(NCC3CCOCC3)n2)c(Cl)cn1)[C@H]1CCCN(S(=O)(=O)C2CC2)C1` [Example 93, (S)-1-Cyclopropanesulfonyl-piperidine-3-carboxylic acid {5′-chloro-6-[(tetrahydro-pyran-4-ylmethyl)-amino]-[2,4′]bipyridinyl-2′-yl}-amide], the IC50 was below 0.008 µM. Next, `CC1(C)CC(CNc2cccc(-c3cc(NC(=O)[C@@H]4CCCNC4)ncc3Cl)n2)CCO1` (stereo partly drawn) [Example 94, (R)-Piperidine-3-carboxylic acid {5′-chloro-6-[(2,2-dimethyl-tetrahydro-pyran-4-ylmethyl)-amino]-[2,4′]bipyridinyl-2′-yl}-amide]: below 0.008 µM.

The values are drawn from patent US20110130380A1, “Heteroaryl Kinase Inhibitors” (priority 2009, published 2011).
